Results from the NIST ThermoML archive (doi:10.1021/je800894y).

Test: xn = mol fraction of the nth substance listed
Conditions: Liquid; for viscosity: Vibrating wire viscometry; for mass density: vibrating-wire apparatus

CC(C)CCCC(C)CCCC(C)CCCCC(C)CCCC(C)CCCC(C)C (configuration not stated) [2,6,10,15,19,23-hexamethyltetracosane] + O=C=O
Conditions	mass density [kg/m3]	viscosity [mPa·s]
303.15 K, 10060 kPa, x2 = 0.4233	814.8	9.12
303.15 K, 10070 kPa, x2 = 0.4233	815.3	9.17
303.15 K, 30380 kPa, x2 = 0.4233	828	12.7
303.15 K, 50510 kPa, x2 = 0.4233	839.2	17.3
303.15 K, 70400 kPa, x2 = 0.4233	849.3	23
303.15 K, 90250 kPa, x2 = 0.4233	856.5	30.5
303.15 K, 110380 kPa, x2 = 0.4233	862.1	40.1
303.15 K, 130280 kPa, x2 = 0.4233	867.8	52.3
303.15 K, 150080 kPa, x2 = 0.4233	869.4	67.8
303.15 K, 170210 kPa, x2 = 0.4233	882.8	85.9
303.17 K, 30190 kPa, x2 = 0.7882	854.3	2.36
303.17 K, 30740 kPa, x2 = 0.7882	847.4	2.24
303.17 K, 50100 kPa, x2 = 0.7882	863.4	2.79
303.17 K, 70730 kPa, x2 = 0.7882	877.8	3.43
303.17 K, 90490 kPa, x2 = 0.7882	890	4.15
303.17 K, 110640 kPa, x2 = 0.7882	901.1	4.95
303.17 K, 130570 kPa, x2 = 0.7882	911	5.91
303.17 K, 151340 kPa, x2 = 0.7882	922.8	6.94
303.17 K, 170570 kPa, x2 = 0.7882	934.8	8.13
303.18 K, 10600 kPa, x2 = 0.6039	823.9	4.92
303.18 K, 30810 kPa, x2 = 0.6039	838.1	6.58
303.18 K, 50820 kPa, x2 = 0.6039	850.4	8.58
303.18 K, 70800 kPa, x2 = 0.6039	861	11
303.18 K, 91100 kPa, x2 = 0.6039	871.1	14
303.18 K, 100670 kPa, x2 = 0.6039	874.8	15.6
303.18 K, 111110 kPa, x2 = 0.6039	879.9	17.5
303.18 K, 130850 kPa, x2 = 0.6039	888.1	21.7
303.18 K, 150500 kPa, x2 = 0.6039	897.9	26.5
303.18 K, 170440 kPa, x2 = 0.6039	910.5	32
348.11 K, 10450 kPa, x2 = 0.6039	787.7	1.92
348.11 K, 10480 kPa, x2 = 0.6039	788.1	1.92
348.11 K, 30310 kPa, x2 = 0.6039	806	2.49
348.11 K, 50270 kPa, x2 = 0.6039	820.7	3.13
348.11 K, 70180 kPa, x2 = 0.6039	833.3	3.85
348.11 K, 90320 kPa, x2 = 0.6039	844.4	4.68
348.11 K, 110880 kPa, x2 = 0.6039	854.6	5.64
348.11 K, 130860 kPa, x2 = 0.6039	863.7	6.7
348.11 K, 150870 kPa, x2 = 0.6039	872.1	7.9
348.11 K, 170910 kPa, x2 = 0.6039	879.8	9.28
348.25 K, 10070 kPa, x2 = 0.4233	783.6	2.99
348.25 K, 10100 kPa, x2 = 0.4233	783.4	2.98
348.25 K, 30390 kPa, x2 = 0.7882	806	1.08
348.25 K, 30440 kPa, x2 = 0.4233	799.2	3.95
348.25 K, 30610 kPa, x2 = 0.7882	806.9	1.07
348.25 K, 50540 kPa, x2 = 0.7882	827	1.34
348.25 K, 50590 kPa, x2 = 0.4233	812.2	5.1
348.25 K, 70530 kPa, x2 = 0.4233	823.5	6.42
348.25 K, 70650 kPa, x2 = 0.7882	844	1.61
348.25 K, 90610 kPa, x2 = 0.4233	833.7	7.98
348.25 K, 90680 kPa, x2 = 0.7882	858.4	1.91
348.25 K, 110350 kPa, x2 = 0.7882	870.8	2.22
348.25 K, 110610 kPa, x2 = 0.4233	842.8	9.83
348.25 K, 130400 kPa, x2 = 0.4233	851.3	11.9
348.25 K, 130530 kPa, x2 = 0.7882	882.3	2.57
348.25 K, 150600 kPa, x2 = 0.7882	892.7	2.94
348.25 K, 150670 kPa, x2 = 0.4233	859.3	14.5
348.25 K, 169670 kPa, x2 = 0.4233	866.3	17.3
348.25 K, 170310 kPa, x2 = 0.7882	902	3.34
398.13 K, 10940 kPa, x2 = 0.6039	749.2	1.01
398.13 K, 11100 kPa, x2 = 0.6039	748.9	1
398.13 K, 30870 kPa, x2 = 0.6039	771.8	1.3
398.13 K, 50550 kPa, x2 = 0.6039	789.2	1.61
398.13 K, 70810 kPa, x2 = 0.6039	804.2	1.95
398.13 K, 91230 kPa, x2 = 0.6039	817.2	2.31
398.13 K, 110700 kPa, x2 = 0.6039	828.2	2.69
398.13 K, 131240 kPa, x2 = 0.6039	838.7	3.12
398.13 K, 150740 kPa, x2 = 0.6039	847.7	3.57
398.13 K, 170660 kPa, x2 = 0.6039	856.2	4.08
398.31 K, 10790 kPa, x2 = 0.4233	749	1.38
398.31 K, 10830 kPa, x2 = 0.4233	755.3	1.39
398.31 K, 30180 kPa, x2 = 0.4233	768.1	1.79
398.31 K, 50350 kPa, x2 = 0.4233	784	2.24
398.31 K, 70500 kPa, x2 = 0.4233	797.4	2.74
398.31 K, 90450 kPa, x2 = 0.4233	808.9	3.3
398.31 K, 110290 kPa, x2 = 0.4233	819.1	3.92
398.31 K, 130350 kPa, x2 = 0.4233	828.4	4.62
398.31 K, 150520 kPa, x2 = 0.4233	837.2	5.4
398.31 K, 170000 kPa, x2 = 0.4233	845	6.24
398.33 K, 30150 kPa, x2 = 0.7882	760.4	0.62
398.33 K, 30500 kPa, x2 = 0.7882	759.9	0.62
398.33 K, 50500 kPa, x2 = 0.7882	786.7	0.78
398.33 K, 70580 kPa, x2 = 0.7882	807.3	0.94
398.33 K, 90510 kPa, x2 = 0.7882	824.2	1.1
398.33 K, 110760 kPa, x2 = 0.7882	839	1.28
398.33 K, 130550 kPa, x2 = 0.7882	851.6	1.46
398.33 K, 150620 kPa, x2 = 0.7882	863.2	1.65
398.33 K, 170310 kPa, x2 = 0.7882	873.6	1.84
448.13 K, 10630 kPa, x2 = 0.6039	713.1	0.69
448.13 K, 11010 kPa, x2 = 0.6039	713.3	0.68
448.13 K, 30730 kPa, x2 = 0.6039	739.7	0.89
448.13 K, 50590 kPa, x2 = 0.6039	759.8	1.09
448.13 K, 70380 kPa, x2 = 0.6039	776.6	1.22
448.13 K, 91380 kPa, x2 = 0.6039	791.8	1.43
448.13 K, 111050 kPa, x2 = 0.6039	804.5	1.63
448.13 K, 130810 kPa, x2 = 0.6039	815.7	1.84
448.13 K, 150960 kPa, x2 = 0.6039	826	2.08
448.13 K, 171000 kPa, x2 = 0.6039	835.3	2.35
448.35 K, 11450 kPa, x2 = 0.4233	715.2	0.8
448.35 K, 11570 kPa, x2 = 0.4233	720.6	0.81
448.35 K, 30330 kPa, x2 = 0.4233	737.6	1.04
448.35 K, 50410 kPa, x2 = 0.4233	756.5	1.3
448.35 K, 70450 kPa, x2 = 0.4233	771.8	1.57
448.35 K, 90670 kPa, x2 = 0.4233	785.2	1.86
448.35 K, 110310 kPa, x2 = 0.4233	796.6	2.17
448.35 K, 130440 kPa, x2 = 0.4233	807	2.52
448.35 K, 150510 kPa, x2 = 0.4233	816.5	2.88
448.35 K, 169900 kPa, x2 = 0.4233	824.8	3.28
448.41 K, 30160 kPa, x2 = 0.7882	714.5	0.41
448.41 K, 30820 kPa, x2 = 0.7882	714.9	0.41
448.41 K, 50450 kPa, x2 = 0.7882	748	0.52
448.41 K, 70350 kPa, x2 = 0.7882	772.5	0.63
448.41 K, 90420 kPa, x2 = 0.7882	792.3	0.74
448.41 K, 110590 kPa, x2 = 0.7882	809.1	0.85
448.41 K, 130360 kPa, x2 = 0.7882	823.3	0.97
448.41 K, 150480 kPa, x2 = 0.7882	836.2	1.1
448.41 K, 169720 kPa, x2 = 0.7882	847.5	1.22
